Source: ChEMBL document CHEMBL3872258, “Challenges in the development of an M4 PAM in vivo tool compound: The discovery of VU0467154 and unexpected DMPK profiles of close analogs” (Bioorg Med Chem Lett, 2017)

What was measured:
[1] = target: T1, Muscarinic acetylcholine receptor M4 (Rattus norvegicus, UniProt P08485); assay: Positive allosteric modulation of rat M4 receptor expressed in CHO cells co-expressing Gqui5 by calcium mobilization assay; format: functional, cell-based
T1 sequence (P08485 whole entry): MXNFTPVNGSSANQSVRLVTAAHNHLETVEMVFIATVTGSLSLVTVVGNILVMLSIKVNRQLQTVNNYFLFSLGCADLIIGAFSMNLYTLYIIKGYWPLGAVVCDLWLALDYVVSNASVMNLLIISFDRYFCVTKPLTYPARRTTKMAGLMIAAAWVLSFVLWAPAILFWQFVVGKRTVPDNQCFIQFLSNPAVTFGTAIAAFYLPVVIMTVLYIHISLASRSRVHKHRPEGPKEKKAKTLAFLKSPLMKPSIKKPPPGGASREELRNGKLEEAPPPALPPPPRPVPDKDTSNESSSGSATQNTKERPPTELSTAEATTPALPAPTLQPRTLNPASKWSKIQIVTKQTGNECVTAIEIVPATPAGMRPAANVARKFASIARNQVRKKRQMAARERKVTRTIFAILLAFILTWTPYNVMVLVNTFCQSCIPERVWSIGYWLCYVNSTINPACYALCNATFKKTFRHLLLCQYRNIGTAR

[2] = target: Muscarinic acetylcholine receptor M4 (Homo sapiens) (UniProt P08173); assay: Positive allosteric modulation of human M4 receptor expressed in CHO cells co-expressing Gqui5 by calcium mobilization assay relative to acetylcholine
[3] = Ratio of unbound concentration in brain to plasma in Sprague-Dawley rat at 0.20 to 0.25 mg/kg, iv administered through cassette dosing after 0.25 hrs; format: ADME, organism-based
[4] = Ratio of total drug level in brain to plasma in Sprague-Dawley rat at 0.20 to 0.25 mg/kg, iv administered through cassette dosing after 0.25 hrs; format: ADME, organism-based
[5] = Ratio of total drug level in brain to plasma (unknown origin); format: ADME, cell-free; conditions: brain and plasma
[6] = Fraction unbound in rat; format: ADME
[7] = target: T2, Muscarinic acetylcholine receptor M4 (Homo sapiens) (UniProt P08173); assay: Positive allosteric modulation of human M4 receptor relative to acetylcholine
T2 sequence (whole entry): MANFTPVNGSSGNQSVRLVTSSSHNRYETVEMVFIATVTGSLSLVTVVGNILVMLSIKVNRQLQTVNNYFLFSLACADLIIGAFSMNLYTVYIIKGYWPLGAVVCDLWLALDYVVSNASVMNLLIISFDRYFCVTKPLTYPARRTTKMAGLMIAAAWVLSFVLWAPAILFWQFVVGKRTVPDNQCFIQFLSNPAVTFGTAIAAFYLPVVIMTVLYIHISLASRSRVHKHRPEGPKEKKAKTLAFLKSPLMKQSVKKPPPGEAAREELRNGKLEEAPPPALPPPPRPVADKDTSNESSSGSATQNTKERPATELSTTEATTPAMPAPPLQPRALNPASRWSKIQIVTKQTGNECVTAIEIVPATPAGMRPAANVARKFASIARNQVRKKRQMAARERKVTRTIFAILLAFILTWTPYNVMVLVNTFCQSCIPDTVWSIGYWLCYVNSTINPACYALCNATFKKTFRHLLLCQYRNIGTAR

[8] = Fraction unbound in human; format: ADME
[9] = target: T3, Muscarinic acetylcholine receptor M4 (Homo sapiens, UniProt P08173); assay: Positive allosteric modulation of human M4 receptor
T3 sequence (P08173 whole entry): T2 sequence (whole entry)

[10] = target: T3, Muscarinic acetylcholine receptor M4; assay: Positive allosteric modulation of human M4 receptor expressed in CHO cells co-expressing Gqui5 by calcium mobilization assay; format: functional, cell-based
[11] = target: T2, Muscarinic acetylcholine receptor M4 (Homo sapiens); assay: Positive allosteric modulation of human M4 receptor expressed in CHO cells co-expressing Gqui5 by calcium mobilization assay relative to acetylcholine; format: functional, cell-based
[12] = target: T4, Muscarinic acetylcholine receptor M4 (Rattus norvegicus) (UniProt P08485); assay: Positive allosteric modulation of rat M4 receptor expressed in CHO cells co-expressing Gqui5 by calcium mobilization assay relative to acetylcholine; format: functional, cell-based
T4 sequence (whole entry): T1 sequence (P08485 whole entry)

Row | Compound | EC50 [1] [nM] | Emax [2] [%] | K(p,uu,brain) [3] | Kp [4] | further results
1 | Cc1nnc2sc(C(=O)NCc3ccc(S(=O)(=O)C(F)F)c(F)c3)c(N)c2c1C | 23.4 | 76.7 | – | – | K(p,uu,brain) ([3]; BLD = below limit of detection): Bld; Kp ([4]; BLD = below limit of detection): Bld
2 | Cc1nnc2sc(C(=O)NCc3cccc(S(C)(=O)=O)c3)c(N)c2c1C | 417 | 74.6 | – | – | –
3 | COc1ccc(CNC(=O)c2sc3nnc(C)c(C)c3c2N)cc1 | – | – | – | – | Kp [5]: 0.28; fraction unbound [6]: 0.022; Emax [7]: 83%; fraction unbound [8]: 0.035; EC50 [9]: 150 nM
4 | Cc1nnc2sc(C(=O)NCc3ccc(S(=O)(=O)C4CC4)cc3)c(N)c2c1C | 22.4 | 67.1 | 0.29 | 0.05 | –
5 | Cc1nnc2sc(C(=O)NCc3ccc(S(=O)(=O)CF)cc3)c(N)c2c1C | 21.9 | 62.5 | – | – | EC50 ([10]; read-out: pEC50 (converted)): 209 nM; Emax [11]: 62.5%; K(p,uu,brain) ([3]; BLD = below limit of detection): Bld; Kp ([4]; BLD = below limit of detection): Bld
6 | CSc1ccc(CNC(=O)c2sc3nnc(C)c(C)c3c2N)cc1 | 11.2 | – | 0.48 | 0.13 | EC50 ([10]; read-out: EC50): 60.2 nM; Emax [12]: 75.6%; Emax [11]: 71.9%
7 | Cc1nnc2sc(C(=O)NCc3ccc([S+](C)[O-])cc3)c(N)c2c1C (stereo not given) | 139 | 74.2 | – | – | –
8 | COc1ccc(CNC(=O)c2sc3nc(C)cc(C)c3c2N)cc1 | – | – | – | – | Kp [5]: 0.38; fraction unbound [6]: 0.015; fraction unbound [8]: 0.004
9 | Cc1nnc2sc(C(=O)NCc3ccc(S(=O)(=O)C(C)(C)C)cc3)c(N)c2c1C | 44.7 | 72.1 | 0.34 | 0.11 | –
10 | Cc1nnc2sc(C(=O)NCc3ccc(S(C)(=O)=O)cc3)c(N)c2c1C | 51.3 | – | 0.14 | 0.04 | EC50 ([10]; read-out: EC50): 363 nM; Emax [12]: 72.6%; Emax [11]: 73.8%
11 | Cc1nnc2sc(C(=O)NCc3ccc(S(C)(=O)=O)c(F)c3)c(N)c2c1C | 57.7 | 69.2 | 2.8 | 0.51 | –
12 | Cc1nnc2sc(C(=O)NCc3ccc(S(=O)(=O)C(C)C)cc3)c(N)c2c1C | 47.9 | 76.8 | 0.67 | 0.07 | –
